Results on one compound are retold here after patent US9596855B2, “Small molecule inhibitors of biofilm formation and the novel use of previously identified compounds for inhibition of biofilm formation and applications for drug therapy and medical device coating” (priority 2013, dated 2017).

Data set [1] deals with V. cholerae. The experiment in a line: image-based biofilm inhibition screening platform. In kind it is cell-based. The protocol:
In the present study, a 1,248-member prefractionated marine natural product library was evaluated for biofilm inhibitory activity using a recently-developed image-based screening platform. […] Prefraction 1671D is a semi-purified mixture that contains mixture of several individual compounds. Prefraction 1671D was therefore subjected to one-compound-one-well ‘peak library’ fractionation using the inventors' standard protocol that automatically separates the constituents of prefractions of interest based on HPLC retention times, and connects specific constituents to observed biological activities through secondary screening.
This activity was coupled with a striking biofilm macrocolony phenotype, providing strong justification for purification and full structural characterization of the active constituent. It was from 1671D that “compound 5” was isolated.

Another data set concerns HeLa cells. The experiment in a line: mammalian cell cytotoxicity. It counts as cell-based. As to conditions: up to the highest tested concentration (250 μM).
For data set [2], the system named is V. cholerae. The experiment in a line: co-dosing of biofilm inhibitor with sub-MIC and sub-BIC antibiotics, image-based screen.
In another data set the test system is tested strains. The data set is described as follows: bactericidal activity against tested strains. Conditions: any of the tested strains. In kind it is cell-based.

Turning to `C=C1Oc2cc(OC)cc(C(=O)OC)c2NC1=O` [Compound 5], the IC50 in the data set on V. cholerae [1] (Vibrio cholerae, read-out: biofilm inhibitory activity (IC50)) amounted to 60.1 µM. Moreover, the “biofilm phenotype (epifluorescence and confocal images)” value with V. cholerae [1] (on treatment with compound) is “micro-colonies initially become less organized and less tightly packed”. Moreover, the mammalian cell cytotoxicity result in the data set with HeLa cells is recorded as “no mammalian cell cytotoxicity”. For the same compound, the biofilm-clearing efficacy entry in the data set with V. cholerae [2] (with sub-BIC concentrations of ceftazidime) and in the data set with V. cholerae [2] (with sub-BIC concentrations of ciprofloxacin) was “improve” each time. In addition, in the data set with tested strains, the bactericidal activity result was “no bactericidal activity”.

What is called IC50 is the concentration that inhibits the measured activity by half.
